Results as given in patent US20110166112A1, “METHOD FOR STIMULATING PLATELET PRODUCTION” (Eisai, Inc., priority 2009, published 2011).
Marks after values point to notes of the source that are not given here.

Tested on: subjects with chronic ITP
Assay: Recurrence of thrombocytopenia upon discontinuation of E5501 (platelet count below 10,000/mm^3)
Format: in vivo, human
Settings: for Recurrence of thrombocytopenia: Relation To E5501: assessed by the investigator
Method: Recurrence of Thrombocytopenia. Recurrence of thrombocytopenia has been previously reported and is of special interest in this population. Recurrence of thrombocytopenia was defined as a platelet count that decreased to below 10,000/mm^3 upon discontinuation of E5501. In this study, 9 subjects potentially met the criteria for recurrence of thrombocytopenia. Three were deemed serious; all 3 recovered.
All 9 cases occurred at an E5501 dose of 10 mg or above, and the majority (n=6/9) occurred within 2 weeks after discontinuation of E5501 (FIG. 3). However, recurrent thrombocytopenia was seen up to 4 weeks after the last dose of study drug.

## O=C(Nc1nc(-c2cc(Cl)cs2)c(N2CCN(C3CCCCC3)CC2)s1)c1cnc(N2CCC(C(=O)O)CC2)c(Cl)c1 [E5501, 1-(3-chloro-5-{[4-(4-chlorothiophen-2-yl)-5-(4-cyclohexylpiperazin-1-yl)thiazol-2-yl]carbamoyl}pyridine-2-yl)piperidine-4-carboxylic acid]
Subject A, 20-30 mg, 1st entry
  Recurrence of thrombocytopenia: Outcome: Recovered
  Recurrence of thrombocytopenia: Platelet Count: 3 K/mm^3
  Recurrence of thrombocytopenia: Serious: No
  Recurrence of thrombocytopenia: Study Days (No. Days Posttreatment): 193 (17) Days
  Recurrence of thrombocytopenia: Relation To E5501: Not related
Subject A, 20-30 mg, 2nd entry
  Recurrence of thrombocytopenia: Outcome: Recovered
  Recurrence of thrombocytopenia: Platelet Count: 6 K/mm^3
  Recurrence of thrombocytopenia: Serious: No
  Recurrence of thrombocytopenia: Study Days (No. Days Posttreatment): 235 (59) Days
  Recurrence of thrombocytopenia: Relation To E5501: Not related
Subject A, 20-30 mg, 3rd entry
  Recurrence of thrombocytopenia: Outcome: Recovered
  Recurrence of thrombocytopenia: Platelet Count: 4 K/mm^3
  Recurrence of thrombocytopenia: Serious: No
  Recurrence of thrombocytopenia: Study Days (No. Days Posttreatment): 249 (73) Days
  Recurrence of thrombocytopenia: Relation To E5501: Not related
Subject B, 10 mg
  Recurrence of thrombocytopenia: Platelet Count: 1 K/mm^3
  Recurrence of thrombocytopenia: Serious: No
  Recurrence of thrombocytopenia: Study Days (No. Days Posttreatment): 209 (28) Days
Subject C, 10-20 mg
  Recurrence of thrombocytopenia: Outcome: Recovered
  Recurrence of thrombocytopenia: Platelet Count: 6 K/mm^3
  Recurrence of thrombocytopenia: Serious: No
  Recurrence of thrombocytopenia: Study Days (No. Days Posttreatment): 182 (14) Days
  Recurrence of thrombocytopenia: Relation To E5501: Probably
Subject D, 20 mg
  Recurrence of thrombocytopenia: Outcome: Recovered
  Recurrence of thrombocytopenia: Platelet Count: 1 K/mm^3
  Recurrence of thrombocytopenia: Serious: Serious
  Recurrence of thrombocytopenia: Study Days (No. Days Posttreatment): 193 (10) Days
  Recurrence of thrombocytopenia: Relation To E5501: Not related
Subject E, 10 mg
  Recurrence of thrombocytopenia: Platelet Count: 8 K/mm^3
  Recurrence of thrombocytopenia: Serious: No
  Recurrence of thrombocytopenia: Study Days (No. Days Posttreatment): 209 (7) Days
Subject F, 20 mg
  Recurrence of thrombocytopenia: Outcome: Recovered
  Recurrence of thrombocytopenia: Platelet Count: 8 K/mm^3
  Recurrence of thrombocytopenia: Serious: Serious
  Recurrence of thrombocytopenia: Study Days (No. Days Posttreatment): 192 (11) Days
  Recurrence of thrombocytopenia: Relation To E5501: Not related
Subject G, 2.5-12.5 mg
  Recurrence of thrombocytopenia: Outcome: Recovered
  Recurrence of thrombocytopenia: Serious: Serious
  Recurrence of thrombocytopenia: Study Days (No. Days Posttreatment): 179 (13) Days
  Recurrence of thrombocytopenia: Relation To E5501: Probably
Subject G, 2.5-12.5 mg, recorded 3 days before the event
  Recurrence of thrombocytopenia: Platelet Count: 16^g K/mm^3
Subject H, 10-40 mg
  Recurrence of thrombocytopenia: Outcome: Recovered
  Recurrence of thrombocytopenia: Platelet Count: 4 K/mm^3
  Recurrence of thrombocytopenia: Serious: No
  Recurrence of thrombocytopenia: Study Days (No. Days Posttreatment): 143 (16) Days
  Recurrence of thrombocytopenia: Relation To E5501: Not related
Subject I, 10-20 mg, 1st entry
  Recurrence of thrombocytopenia: Outcome: Recovered
  Recurrence of thrombocytopenia: Platelet Count: 8 K/mm^3
  Recurrence of thrombocytopenia: Serious: No
  Recurrence of thrombocytopenia: Study Days (No. Days Posttreatment): 181 (13) Days
  Recurrence of thrombocytopenia: Relation To E5501: Not related
Subject I, 10-20 mg, 2nd entry
  Recurrence of thrombocytopenia: Outcome: Recovered
  Recurrence of thrombocytopenia: Platelet Count: 9 K/mm^3
  Recurrence of thrombocytopenia: Serious: No
  Recurrence of thrombocytopenia: Study Days (No. Days Posttreatment): 233 (65) Days
  Recurrence of thrombocytopenia: Relation To E5501: Not related
In vivo
  recurrences of thrombocytopenia deemed serious: Three
Of 9 cases
  recurrences of thrombocytopenia within 2 weeks after discontinuation of E5501: 6 n
Upon discontinuation, E5501 dose of 10 mg or above
  subjects who potentially met the criteria for recurrence of thrombocytopenia: 9 subjects
